Data on 45 compounds can be found in PubChem BioAssay (NCI).

SMILES strings stand for the structures. Where “and” joins values, the source holds several entries; their conditions need not be identical. Identical values can stand only once.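 Dose response: 5 concentrations. Exposure: 48 h. Format: 96-well plates. Endpoint: linear interpolation; highest concentration if not reached. Here, GI50 denotes the concentration required for 50% inhibition of growth. Definition used: TGI = concentration required for complete inhibition of growth.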 A value given as a limit tells only on which side of the number the result lay.

The test system of this assay is MDA-MB-468 breast. The assay is described as follows: growth of human tumour cells (NCI), 48 h.
As for `O=C(/C=C\c1cccc([N+](=O)[O-])c1)/C=C/c1cccc([N+](=O)[O-])c1`, the GI50 was 3430 nM and the TGI turned out to be 55500 nM. In the same order, the values of `CN(C)CCCn1c(=O)c2ccccc2c2ccccc21` are 6180 nM and 20100 nM. For the compound `O=C1OCC2=C1C(c1ccccc1)c1cc3c(cc1N2)OCO3` (stereo not drawn), the GI50 was 27 nM and the TGI came to 600 nM. In the same order, the values of `CC(C)NCCCn1c(Sc2cc3c(cc2I)OCO3)nc2c(N)ncnc21` are 82.7 nM and 3620 nM. In the case of `CC1=C2[C@@H](CC1)[C@]1(C)O[C@@](c3ccccc3)(C[C@H]1OC(=O)CO)[C@H]2OC(=O)/C=C/c1ccccc1`, the GI50 is 17900 nM and the TGI turned out to be 46000 nM.

As to `O=S(=O)(c1ccc(Cl)cc1)C(Cl)(Cl)Cl`, the GI50 was 1440 nM and the TGI was 5500 nM. With `C1CCC([PH+](C2CCCCC2)C2CCCCC2[PH+](C2CCCCC2)C2CCCCC2)CC1.[Au].[CH-]1CCCCC1CC1CCCC[N-]1` (stereo not drawn), the GI50 is 161 nM and the TGI is 631 nM.

For `CC(C)C[C@H](NC(=O)CNC(=O)c1cc(Cl)ccc1Cl)B1OC(=O)CC(CC(=O)O)(C(=O)O)O1` (stereo partly drawn), the GI50 was 17 nM and the TGI was determined as 38.5 nM. For `CN=c1ccc2nc3ccc(N)cc3sc-2c1`, in that order: 2900 nM and 17100 nM. In the same order, the values of `O=C1OCC2=C1C(c1ccc(Cl)c(Cl)c1)c1cc3c(cc1N2CCO)OCCO3` (stereo not drawn) are 95 nM and 394 nM. For `CCCN(CCS(C)(=O)=O)Cc1ccc(-c2ccc3ncnc(Nc4ccc(OCc5cccc(F)c5)c(Cl)c4)c3c2)o1`, in that order: 75.2 nM and 877 nM. For the compound `Nc1nc(OCc2ccccc2)c2[nH]cnc2n1`, the GI50 was 28100 nM and 34900 nM; the TGI was determined as 207000 nM. As to `CC(C)=CCc1c(O)c(CC=C(C)C)c2c(c1O)C(=O)C1=C[C@@H]3C[C@H]4C(C)(C)O[C@@](C/C=C(\C)C(=O)O)(C3=O)[C@@]14O2`, the GI50 is 24100 nM and the TGI was 48600 nM. For `COc1ccc(-c2[nH]c3ccccc3c2-c2ccc(OC)cc2)cc1`, the GI50 is 2430 nM and the TGI is 7180 nM. For `c1cnn2ncc(-c3ccnc(NCCCN4CCOCC4)n3)c2c1`, in that order: 3450 nM and 10000 nM. In the same order, the values of `FC(F)(F)c1ccc(-c2cnc(-c3ncon3)nc2NC2CCCCCC2)cc1` are 48500 nM and > 100000 nM. In the same order, the values of `C#Cc1nc(/C=C/CCCCCCC(=O)NO)cs1` are 2130 nM and 8650 nM.

With `C[C@@H]1CN(Cc2ccc(F)cc2)[C@@H](C)CN1C(=O)c1cc2c(C(=O)C(=O)N(C)C)cn(C)c2cc1Cl`, the GI50 was 13300 nM and the TGI came out at 45000 nM. In the same order, the values of `CCc1ccc2c(c1)N(CCO)C1=C(C(=O)OC1)C2c1cccc(Br)c1` (stereo not drawn) are 164 nM and 660 nM. On to `COc1ccc2cc1Oc1ccc(cc1)C[C@H]1c3c(cc4c(c3Oc3cc5c(cc3OC)CCN(C)[C@@H]5C2)OCO4)CCN1C`, for which the GI50 is 593 nM and the TGI amounted to 2310 nM. For `O=C(/C=C/c1cc2ccccc2[nH]c1=O)/C=C/c1cc2ccccc2[nH]c1=O`, in that order: 7330 nM and 15500 nM. As to `CCCCCCCCCCCCCCCCCC1=NCCN1CCOC1=C(Cl)C(=O)c2ccccc2C1=O`, the GI50 is 1640 nM and the TGI turned out to be 3270 nM. Take `CN1CCN(Cc2ccc(NC(=O)c3cncc(C#Cc4cnc(N)nc4)c3)cc2C(F)(F)F)CC1`: the GI50 was 684 nM and the TGI was determined as 7660 nM. For `CO[C@H]1CC(O[C@@H]2/C(C)=C/C[C@@H]3C[C@@H](C[C@]4(C=C[C@H](C)[C@@H](C5CCCCC5)O4)O3)OC(=O)[C@@H]3C=C(C)[C@@H](O)[C@H]4OC/C(=C\C=C\[C@@H]2C)[C@]43O)O[C@@H](C)C1O[C@H]1C[C@H](OC)[C@@H](O)[C@H](C)O1` (stereo partly drawn), in that order: 1400 nM and 3010 nM.

As to `COc1cc2c(cc1OCCCn1c(-c3ccccn3)nc3ccccc31)N=C[C@@H]1CCCN1C2=O`, the GI50 was 1940 nM and the TGI turned out to be 5640 nM. Turning to `N#Cc1c(N2CCOCC2)nc(=S)[nH]c1-c1ccco1`, the GI50 was 3510 nM and the TGI is > 100000 nM. As for `C=CC(=O)Nc1cccc(Oc2nc(Nc3ccc(N4CCN(C)CC4)cc3)nc3ccsc23)c1`, the GI50 is 267 nM and 570 nM; the TGI was 1750 nM and 3360 nM. As for `OCc1ccc(N2CCCC2c2ccccc2)cc1Cl` (stereo not drawn), the GI50 was 117 nM and the TGI was 448 nM. In the same order, the values of `OCC1OC(n2cnc3c(N/N=C\c4ccccn4)ncnc32)C(O)C1O` (stereo not drawn) are 187 nM and 508 nM.

Turning to `CNCCCNCCCCNCCCN1C(=O)c2ccc3c4c(ccc(c24)C1=O)C(=O)N(CCCNCc1ccccc1OC)C3=O`, the GI50 is 1890 nM and the TGI is 11700 nM. For `Cc1ccc(/C=N\NC(=O)c2[nH]c3ccc(F)cc3c2-c2ccccc2)cc1`, in that order: 24 nM and 67.4 nM.

Consider `O=C1/C(=C/c2ccccc2[N+](=O)[O-])Cc2ccccc21`, for which the GI50 is 1380 nM and the TGI is 3030 nM. For `CN1C(=O)N(C)C2C1NN=c1s/c(=C\c3ccc(C(F)(F)F)cc3)c(=O)n12` (stereo not drawn), in that order: 510 nM and 26200 nM. In the same order, the values of `CCCCCCCCCCCCCCCCCC[n+]1ccc2c(C)c3c(c(C)c2c1)c1cc(O)ccc1n3CC` are 628 nM and 4110 nM. For the compound `COc1ccc2c(c1)N(CCO)C1=C(C(=O)OC1)C2c1cccc(F)c1` (stereo not drawn), the GI50 is 202 nM. As to `C/C(=C\c1ccc2ccccc2c1)[N+](=O)[O-]`, the GI50 was 1560 nM and the TGI was 3060 nM. In the same order, the values of `CN[C@@H](C)C(=O)N[C@H](C(=O)N1CCC[C@H]1C(=O)Nc1sc(-c2ncco2)nc1-c1ccccc1)C1CCCCC1` are 11400 nM and 35700 nM. For `O=C1c2cccnc2C(=O)c2c1c(C(=O)NCCCN1CCCCC1)c1ccccn21`, the GI50 was 531 nM and the TGI came to 1890 nM. As to `COc1ccc(-c2nc(Nc3cc(C)[nH]n3)c3ccccc3n2)cc1`, the GI50 was 3120 nM and the TGI was > 53400 nM. For `CN1CCN(C(=O)c2cc(-c3ccc4ncnc(N5CCc6cc(F)c(Cl)cc65)c4c3)cnc2N)CC1`, in that order: 120 nM and 365 nM. For `O=C(Nc1ccc(OCc2nnc(-c3ccc(Cl)cc3)o2)c(F)c1)Nc1ccc(Cl)c(C(F)(F)F)c1`, in that order: 1800 nM and 7370 nM. For `O=S(=O)(Nc1cc(Sc2cccc3cccnc23)c(O)c2ccccc12)c1ccc(F)cc1`, in that order: 1800 nM and 4080 nM. For `CCOc1ccccc1C(=O)N1CCN(c2cc(Cl)cc(Cl)c2)CC1`, the GI50 is 29.2 nM and the TGI was 2870 nM. For the compound `O=C1c2c(c3c4ccccc4[nH]c3c3ccc4ccccc4c23)C(=O)N1CCN1CCNCC1`, the GI50 is 1650 nM and the TGI stood at 3300 nM.

With `O=C1CCC(N2Cc3cc(CNC(=O)C(F)(F)c4ccc(Cl)cc4)ccc3C2=O)C(=O)N1` (stereo not drawn), the GI50 was 48.1 nM.
